From the NIST ThermoML archive (doi:10.1021/je201116t)
Numbers after ± are expanded uncertainties.

Assay: xn = mol fraction of the nth substance listed
Conditions: 101 kPa, Liquid; for viscosity: Capillary tube (Ostwald / Ubbelohde) method

CCC(=O)[O-].CC[NH+]1CCNCC1 [N-ethylpiperazinium propionate] + CCCCO
Conditions	mass density, 298.15 K [kg/m3]	mass density, 303.15 K [kg/m3]	mass density, 308.15 K [kg/m3]	mass density, 313.15 K [kg/m3]	viscosity, 298.15 K [mPa·s]	viscosity, 303.15 K [mPa·s]	viscosity, 308.15 K [mPa·s]	viscosity, 313.15 K [mPa·s]
x2 = 0	1008.36 ± 1.2	1004.38 ± 1.2	1000.33 ± 1.2	996.237 ± 1.2	243.49 ± 7.6	164.81 ± 4.6	113.44 ± 2.7	80.93 ± 1.8
x2 = 0.1025	998.465 ± 1.1	994.495 ± 1.1	990.478 ± 1.1	986.427 ± 1.1	177.49 ± 4.9	122.06 ± 3	84.94 ± 1.8	61.07 ± 1.2
x2 = 0.2018	987.497 ± 0.99	983.536 ± 1	979.527 ± 1	975.484 ± 1	133.79 ± 3.3	91.02 ± 2	63.82 ± 1.2	46.53 ± 0.91
x2 = 0.2999	975.365 ± 0.94	971.427 ± 0.96	967.437 ± 0.97	963.409 ± 0.99	98.72 ± 2.1	67.32 ± 1.4	47.84 ± 0.9	35.22 ± 0.66
x2 = 0.3989	961.397 ± 0.92	957.475 ± 0.93	953.503 ± 0.95	949.491 ± 0.96	73.16 ± 1.4	50.02 ± 0.97	35.72 ± 0.66	26.48 ± 0.48
x2 = 0.5016	944.783 ± 0.91	940.876 ± 0.92	936.907 ± 0.94	932.906 ± 0.96	53.48 ± 0.97	36.42 ± 0.71	26.02 ± 0.47	19.37 ± 0.34
x2 = 0.6004	926.29 ± 0.92	922.385 ± 0.94	918.422 ± 0.96	914.42 ± 0.98	38.82 ± 0.72	26.35 ± 0.51	18.8 ± 0.34	14.05 ± 0.24
x2 = 0.7012	903.96 ± 0.97	900.045 ± 0.99	896.078 ± 1	892.071 ± 1	27.07 ± 0.5	18.12 ± 0.35	12.92 ± 0.23	9.675 ± 0.16
x2 = 0.8008	877.764 ± 1	873.84 ± 1.1	869.866 ± 1.1	865.851 ± 1.1	17.51 ± 0.32	11.84 ± 0.23	8.502 ± 0.15	6.434 ± 0.11
x2 = 0.8995	845.961 ± 1.2	842.05 ± 1.2	838.083 ± 1.2	834.079 ± 1.2	9.611 ± 0.17	6.701 ± 0.12	4.966 ± 0.081	3.87 ± 0.058

CCC(=O)[O-].CC[NH+]1CCNCC1 [N-ethylpiperazinium propionate] + CCCO
Conditions	mass density, 298.15 K [kg/m3]	mass density, 303.15 K [kg/m3]	mass density, 308.15 K [kg/m3]	mass density, 313.15 K [kg/m3]	viscosity, 298.15 K [mPa·s]	viscosity, 303.15 K [mPa·s]	viscosity, 308.15 K [mPa·s]	viscosity, 313.15 K [mPa·s]
x2 = 0	1008.36 ± 1.2	1004.38 ± 1.2	1000.33 ± 1.2	996.237 ± 1.2	243.49 ± 7.6	164.81 ± 4.6	113.44 ± 2.7	80.93 ± 1.8
x2 = 0.1036	1000.19 ± 1	996.232 ± 1.1	992.229 ± 1.1	988.196 ± 1.1	160.34 ± 4.3	113.63 ± 2.6	81.46 ± 1.7	59.74 ± 1.2
x2 = 0.2026	991.259 ± 0.95	987.3 ± 0.97	983.298 ± 0.98	979.269 ± 1	107.67 ± 2.4	76.59 ± 1.5	56.22 ± 1	42.19 ± 0.74
x2 = 0.3041	980.78 ± 0.89	976.824 ± 0.9	972.831 ± 0.92	968.803 ± 0.93	70.22 ± 1.3	52.12 ± 0.9	39.45 ± 0.67	30.42 ± 0.51
x2 = 0.4017	968.85 ± 0.84	964.943 ± 0.86	960.993 ± 0.88	956.993 ± 0.89	47.45 ± 0.8	36.21 ± 0.6	28.19 ± 0.45	22.22 ± 0.35
x2 = 0.4993	955.014 ± 0.82	951.074 ± 0.84	947.084 ± 0.86	943.06 ± 0.88	30.81 ± 0.5	24.26 ± 0.37	19.38 ± 0.29	15.67 ± 0.23
x2 = 0.5997	937.035 ± 0.83	933.087 ± 0.85	929.086 ± 0.87	925.047 ± 0.89	18.93 ± 0.3	15.39 ± 0.22	12.6 ± 0.18	10.42 ± 0.14
x2 = 0.6994	915.033 ± 0.88	911.053 ± 0.9	907.028 ± 0.92	902.965 ± 0.94	11.31 ± 0.17	9.444 ± 0.13	7.899 ± 0.11	6.684 ± 0.085
x2 = 0.8009	886.568 ± 0.97	882.553 ± 0.99	878.491 ± 1	874.385 ± 1	6.389 ± 0.098	5.454 ± 0.072	4.689 ± 0.061	4.059 ± 0.049
x2 = 0.8997	850.105 ± 1.1	846.036 ± 1.1	841.932 ± 1.1	837.782 ± 1.2	3.609 ± 0.053	3.15 ± 0.04	2.762 ± 0.035	2.435 ± 0.029

CCC(=O)[O-].CC[NH+]1CCNCC1 [N-ethylpiperazinium propionate] + CCO
Conditions	mass density, 298.15 K [kg/m3]	mass density, 303.15 K [kg/m3]	mass density, 308.15 K [kg/m3]	mass density, 313.15 K [kg/m3]	viscosity, 298.15 K [mPa·s]	viscosity, 303.15 K [mPa·s]	viscosity, 308.15 K [mPa·s]	viscosity, 313.15 K [mPa·s]
x2 = 0	1008.36 ± 1.2	1004.38 ± 1.2	1000.33 ± 1.2	996.237 ± 1.2	243.49 ± 7.6	164.81 ± 4.6	113.44 ± 2.7	80.93 ± 1.8
x2 = 0.0971	1002.79 ± 1.1	998.809 ± 1.1	994.769 ± 1.1	990.695 ± 1.1	170.13 ± 4.6	119.44 ± 2.9	85.41 ± 1.8	61.23 ± 1.2
x2 = 0.2017	995.311 ± 0.94	991.322 ± 0.95	987.293 ± 0.97	983.232 ± 0.98	109.9 ± 2.4	82.6 ± 1.6	60.3 ± 1.1	44.79 ± 0.84
x2 = 0.3033	986.576 ± 0.86	982.598 ± 0.88	978.579 ± 0.89	974.526 ± 0.91	75.85 ± 1.4	55.8 ± 0.98	42.03 ± 0.72	32.1 ± 0.55
x2 = 0.3983	976.628 ± 0.81	972.658 ± 0.83	968.645 ± 0.85	964.592 ± 0.86	48.89 ± 0.86	37.01 ± 0.62	28.65 ± 0.46	22.63 ± 0.35
x2 = 0.5001	963.41 ± 0.79	959.429 ± 0.81	955.408 ± 0.82	951.35 ± 0.84	29.59 ± 0.49	23.34 ± 0.36	18.57 ± 0.28	15.06 ± 0.22
x2 = 0.6006	946.741 ± 0.79	942.745 ± 0.81	938.702 ± 0.83	934.623 ± 0.85	17.18 ± 0.28	14 ± 0.2	11.54 ± 0.16	9.602 ± 0.13
x2 = 0.6994	925.277 ± 0.83	921.231 ± 0.85	917.149 ± 0.87	913.029 ± 0.89	9.403 ± 0.15	7.923 ± 0.11	6.734 ± 0.09	5.766 ± 0.071
x2 = 0.8001	895.282 ± 0.93	891.163 ± 0.95	887.012 ± 0.97	882.818 ± 0.99	4.925 ± 0.077	4.279 ± 0.055	3.74 ± 0.048	3.286 ± 0.039
x2 = 0.8998	852.465 ± 1.1	848.243 ± 1.1	843.982 ± 1.1	839.679 ± 1.2	2.437 ± 0.038	2.175 ± 0.027	1.947 ± 0.024	1.749 ± 0.02

CCC(=O)[O-].CC[NH+]1CCNCC1 [N-ethylpiperazinium propionate] + CO
Conditions	mass density, 298.15 K [kg/m3]	mass density, 303.15 K [kg/m3]	mass density, 308.15 K [kg/m3]	mass density, 313.15 K [kg/m3]	viscosity, 298.15 K [mPa·s]	viscosity, 303.15 K [mPa·s]	viscosity, 308.15 K [mPa·s]	viscosity, 313.15 K [mPa·s]
x2 = 0	1008.36 ± 1.2	1004.38 ± 1.2	1000.33 ± 1.2	996.237 ± 1.2	243.49 ± 7.6	164.81 ± 4.6	113.44 ± 2.7	80.93 ± 1.8
x2 = 0.107	1004.94 ± 1.1	1000.96 ± 1.1	996.919 ± 1.1	992.856 ± 1.1	172.19 ± 4.7	121.04 ± 2.9	86.27 ± 1.8	62.74 ± 1.3
x2 = 0.21	1000.73 ± 0.94	996.739 ± 0.95	992.724 ± 0.97	988.682 ± 0.98	123.07 ± 2.7	89.92 ± 1.8	65.93 ± 1.2	49.08 ± 0.96
x2 = 0.297	996.263 ± 0.87	992.299 ± 0.88	988.292 ± 0.9	984.255 ± 0.92	84.02 ± 1.6	63.49 ± 1.1	47.38 ± 0.83	36.14 ± 0.62
x2 = 0.402	989.36 ± 0.8	985.408 ± 0.82	981.411 ± 0.83	977.382 ± 0.85	52.96 ± 0.89	40.86 ± 0.67	31.63 ± 0.52	24.89 ± 0.4
x2 = 0.5021	980.548 ± 0.76	976.585 ± 0.78	972.582 ± 0.79	968.548 ± 0.81	32.54 ± 0.54	25.5 ± 0.4	20.36 ± 0.31	16.5 ± 0.24
x2 = 0.5994	968.97 ± 0.74	964.991 ± 0.76	960.968 ± 0.78	956.912 ± 0.8	18.41 ± 0.31	15.03 ± 0.22	12.4 ± 0.18	10.4 ± 0.14
x2 = 0.7015	951.447 ± 0.76	947.38 ± 0.78	943.3 ± 0.8	939.188 ± 0.82	9.416 ± 0.16	7.866 ± 0.11	6.73 ± 0.091	5.804 ± 0.072
x2 = 0.7998	925.328 ± 0.83	921.15 ± 0.85	916.957 ± 0.87	912.733 ± 0.9	4.331 ± 0.076	3.807 ± 0.05	3.366 ± 0.044	2.989 ± 0.036
x2 = 0.8999	879.78 ± 1	875.414 ± 1	871.008 ± 1.1	866.573 ± 1.1	1.754 ± 0.033	1.592 ± 0.02	1.451 ± 0.018	1.327 ± 0.017
